This note sets out measurements from patent publication US20110293720A1, “PROGESTIN-CONTAINING DRUG DELIVERY SYSTEM” (BAYER SCHERING PHARMA AKTIENGESELLSCHAFT, priority 2008, published 2011).

Each structure is given as a SMILES string.

A short description of this data set: Particle size distribution (d50/d70/d90, volume distribution, e.g. laser diffraction). Format: physicochemical. Particulars: micronized active ingredient before coating. An excerpt:
When used herein, the term “d90 particle size” is intended to mean that the particle size distribution is so that at least 90% of the particles have a particle diameter of less than the specified value, calculated from the volume distribution curve under the presumption of spherical particles. In a similar way, the term “d50 particle size” is intended to mean that the particle size distribution is so that at least 50% of the particles have a particle diameter of less than the specified value, calculated from the volume distribution curve under the presumption of spherical particles.
Therefore, it is important to note that whenever the terms “particle size”, “particle size distribution”, “particle diameter”, “d90”, “d50”, etc., are used herein it should be understood that the specific values or ranges used in connection therewith are always meant to be determined from the volume distribution curve under the presumption of spherical particles. The particle size distribution may be determined by various techniques, e.g. laser diffraction, and will be known to the person skilled in the art. […] The particle size distribution of the particles comprising the progestin and the protective agent, when incorporated in the wafer, may be determined by dissolving the film forming matrix, separation of the protected particles, and drying the protected particles. […]

Turning to `C[C@]12CCC(=O)C=C1[C@@H]1C[C@@H]1[C@H]1[C@@H]3[C@@H]4C[C@@H]4[C@@]4(CCC(=O)O4)[C@@]3(C)CC[C@@H]12` [drospirenone], the d50 was determined as 2.2 μm and the d90 was determined as 4.8 μm.
